Test results taken from the supplement of paper PMC11424490.

Experiments:
NCI-H2122 [1] = test: fitted bottom plateau of viability curve, % of DMSO control; higher = less maximal inhibition; extreme values may be limits of the assay
How it was run: (§1)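 Viability was measured by CellTiter-Glo luminescence after 72 h of compound exposure for NCI-H2122 and NCI-H358 or 144 h for SW837, and normalised to DMSO controls as percent of control. Relative IC50, averaged across replicates, and the lower plateau were taken from a four-parameter nonlinear fit.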

SW837 [2] = test: as above
How it was run: as §1

NCI-H358 = test: as above
How it was run: as §1

NCI-H2122 [3] = test: relative IC50 of cell viability (CellTiter-Glo); higher = less potent
Method: (§2)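 CellTiter-Glo proliferation assay in KRAS G12C mutant NCI-H2122 (72 h), SW837 (144 h) and NCI-H358 cells in 384-well plates. Monotherapy dose response was fitted with a four-parameter curve after normalisation to DMSO controls (% of control, PoC). IC50 is the relative IC50, averaged over replicates. Bottom is the fitted lower plateau in %PoC; Max.Conc. is the top dose tested.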

SW837 [4] = test: as above
Method: as §2

Row | relative IC50 of cell viability (NCI-H2122 [3]) | relative IC50 of cell viability (SW837 [4]) | SMILES | fitted bottom plateau of viability curve (NCI-H2122 [1]) | fitted bottom plateau of viability curve (SW837 [2]) | fitted bottom plateau of viability curve (NCI-H358)
1 | 5.79 µM | 6.5 µM | CC(C)(C)c1ccc(S(=O)(=O)NCc2ccc(C(=O)Nc3cccnc3)cc2)cc1 [STF-31] (top concentration tested 10000 nM) | 12.7% | 0% | 
2 | 0.0759 µM | 0.943 µM | COc1cc(Nc2ncc3c(n2)-c2ccc(Cl)cc2C(c2c(F)cccc2OC)=NC3)ccc1C(=O)O [MLN8237] (top concentration tested 999.95 nM) | 21.5% | 13.6% | 
3 | 2.85 µM | 5.6 µM | Cc1cn(CCN2CCN(c3ccccc3-c3cc(C#N)cc(C(=O)NCCCN4CCCC4)c3)CC2)c2ccccc12 [LLY-507] (top concentration tested 9999.9 nM) | 24% | 0% | 
4 | 0.21 µM | 0.0306 µM | N#CN=C(NCCCCCCOc1ccc(Cl)cc1)Nc1ccncc1 [GMX1778] (top concentration tested 9999.9 nM) | 5.11% | 17.9% | 

The remaining lines, values behind:

Row | SMILES | relative IC50 of cell viability (NCI-H2122 [3]) | relative IC50 of cell viability (SW837 [4]) | fitted bottom plateau of viability curve (NCI-H2122 [1]) | fitted bottom plateau of viability curve (SW837 [2]) | fitted bottom plateau of viability curve (NCI-H358)
5 | CC1(N)CCN(c2cnc(-c3cccc(Cl)c3Cl)c(N)n2)CC1 [SHP099] (top concentration tested 1000.1 nM) |  |  | 84.1% | 97% | 88.2%
6 | O=P1(N(CCCl)CCCl)NCCCO1 (stereo not drawn) [Cyclophosphamide] (top concentration tested 10000 nM) |  |  | 88.9% | 87.3% | 99.7%
7 | C[C@H](NC(=O)c1c(N)nn2cccnc12)c1cc2cccc(C#Cc3cnn(C)c3)c2c(=O)n1-c1ccccc1 [IPI-549] (top concentration tested 1000 nM) |  |  | 86.2% | 91.6% | 91%
8 | C[C@H](Nc1ncnc2nc[nH]c12)c1cc2cccc(Cl)c2c(=O)n1-c1ccccc1 [Duvelisib] (top concentration tested 9999.9 nM) |  |  | 56.5% | 94.1% | 61%
9 | O=C(/C=C/N1C[C@H]2C[C@@H]1CN2c1ccccn1)c1ccccc1O [PFI-3] (top concentration tested 50000 nM) |  |  | 94% | 98.3% | 93.4%
10 | Cc1c(Cn2c(C)nc3c(C(=O)O)cc(N4CCOCC4)cc32)cccc1C(F)(F)F (top concentration tested 9999.9 nM) |  |  | 70.8% | 98.7% | 93.8%
11 | COc1cc2nc(C)nc(N[C@H](C)c3cc(N)cc(C(F)(F)F)c3)c2cc1O[C@H]1CCOC1 [BI-3406 (SOSi)] (top concentration tested 1000.1 nM) |  |  | 69.4% | 102% | 82%
12 | COc1cccc2c1C(=O)c1c(O)c3c(c(O)c1C2=O)C[C@@](O)(C(=O)CO)C[C@@H]3O[C@H]1C[C@H](N)[C@H](O)[C@H](C)O1 [Doxorubicin] (top concentration tested 1000 nM) | 0.207 µM | 0.142 µM | 34.5% | 1.81% | 
13 | CS(=O)(=O)CCNCc1ccc(-c2ccc3ncnc(Nc4ccc(OCc5cccc(F)c5)c(Cl)c4)c3c2)o1 [Lapatinib] (top concentration tested 1000 nM) |  |  | 77.5% | 92.9% | 58.4%
14 | CCc1cnn2c(NCc3ccc[n+]([O-])c3)cc(N3CCCC[C@H]3CCO)nc12 (top concentration tested 1000 nM) | 0.00891 µM | 0.0259 µM | 3.3% | 5.65% | 
15 | O=c1cc(-c2cccc3c2Sc2ccccc2S3)oc(N2CCOCC2)c1 (top concentration tested 9999.9 nM) |  |  | 70.7% | 101% | 76.8%
16 | O=C(c1c(F)ccc(NS(=O)(=O)N2CC[C@@H](F)C2)c1F)c1c[nH]c2ncc(-c3cnc(C4CC4)nc3)cc12 [PLX8394] (top concentration tested 5000 nM) |  |  | 78.7% | 96.3% | 57.8%
17 | COC(=O)c1ccc2c(c1)NC(=O)/C2=C(\Nc1ccc(N(C)C(=O)CN2CCN(C)CC2)cc1)c1ccccc1 [Nintedanib] (top concentration tested 10000 nM) | 5.99 µM | 2.24 µM | 50.6% | 8.69% | 
18 | CC(=O)O[C@H]1C(=O)[C@@]2(C)[C@H]([C@H](OC(=O)c3ccccc3)[C@]3(O)C[C@H](OC(=O)[C@H](O)[C@@H](NC(=O)c4ccccc4)c4ccccc4)C(C)=C1C3(C)C)[C@]1(OC(C)=O)CO[C@@H]1C[C@@H]2O [Paclitaxel] (top concentration tested 100.01 nM) | 0.00322 µM | 0.0125 µM | 4.65% | 25.6% | 
19 | O=C(c1ccc(F)c(F)c1Nc1ccc(I)cc1F)N1CC(O)([C@@H]2CCCCN2)C1 [Cobimetinib] (top concentration tested 999.97 nM) | 0.139 µM | 0.178 µM | 3.48% | 31.2% | 
20 | CC(=O)Nc1cccc(-n2c(=O)n(C3CC3)c(=O)c3c(Nc4ccc(I)cc4F)n(C)c(=O)c(C)c32)c1 [Trametinib] (top concentration tested 1000 nM) | 0.0217 µM | 0.0334 µM | 3.01% | 11.6% | 

Row | SMILES | relative IC50 of cell viability (NCI-H2122 [3]) | relative IC50 of cell viability (SW837 [4]) | fitted bottom plateau of viability curve (NCI-H2122 [1]) | fitted bottom plateau of viability curve (SW837 [2]) | fitted bottom plateau of viability curve (NCI-H358)
21 | CCCc1cc(C)[nH]c(=O)c1CNC(=O)c1cc(-c2ccnc(N3CCN(C)CC3)c2)cc2c1cnn2C(C)C [GSK343] (top concentration tested 4999.9 nM) |  |  | 83.2% | 94.5% | 92.7%
22 | CO[C@@]12[C@H](COC(N)=O)C3=C(C(=O)C(C)=C(N)C3=O)N1C[C@@H]1N[C@@H]12 [Mitomycin C] (top concentration tested 10000 nM) | 0.46 µM | 0.24 µM | 2.51% | 0.69% | 
23 | Nc1ccn([C@@H]2O[C@H](CO)[C@@H](O)C2(F)F)c(=O)n1 [Gemcitabine] (top concentration tested 99.925 nM) | 0.00762 µM | 0.0123 µM | 28.4% | 18% | 
24 | CC/C(=C(\c1ccccc1)c1ccc(OCCN(C)C)cc1)c1ccccc1 [Tamoxifen] (top concentration tested 10000 nM) |  |  | 66% | 88.6% | 67.9%
25 | CC(C)N(CCCNC(=O)Nc1ccc(C(C)(C)C)cc1)C[C@H]1O[C@@H](n2ccc3c(N)ncnc32)[C@H](O)[C@@H]1O (top concentration tested 50000 nM) |  |  | 67.3% | 93.4% | 81.5%
26 | CCC1=C[C@@H]2CN(C1)Cc1c([nH]c3ccccc13)[C@@](C(=O)OC)(c1cc3c(cc1OC)N(C)[C@H]1[C@@](O)(C(=O)OC)[C@H](OC(C)=O)[C@]4(CC)C=CCN5CC[C@]31[C@@H]54)C2 [Vinorelbine] (top concentration tested 100.01 nM) | 0.00906 µM | 0.0171 µM | 5.21% | 42.9% | 
27 | Nc1nc(Cl)nc2c1ncn2[C@@H]1O[C@H](CO)[C@@H](O)[C@@H]1F [Clofarabine] (top concentration tested 10000 nM) | 0.322 µM | 1.15 µM | 23.7% | 13.4% | 
28 | CC[C@H](Nc1ncnc2[nH]cnc12)c1nc2cccc(F)c2c(=O)n1-c1ccccc1 [Cal-101] (top concentration tested 10000 nM) |  |  | 75.5% | 85.3% | 84.2%
29 | O=C(c1cc(Cc2n[nH]c(=O)c3ccccc23)ccc1F)N1CCN(C(=O)C2CC2)CC1 [Olaparib] (top concentration tested 50000 nM) |  |  | 63.9% | 88.2% | 56.6%
30 | Oc1nc(-c2ccc(C(F)(F)F)cc2)nc2c1CSCC2 [XAV939] (top concentration tested 50000 nM) |  |  | 81.5% | 89.3% | 88.7%
31 | CN[C@H]1CN(c2ccc3c(=O)c(C(=O)O)cn(-c4nccs4)c3n2)C[C@@H]1OC [Vosaroxin] (top concentration tested 2500 nM) | 0.778 µM | 2.31 µM | 34.3% | 0% | 
32 | CC(=O)[C@]1(O)Cc2c(O)c3c(c(O)c2[C@@H](O[C@H]2C[C@H](N)[C@H](O)[C@H](C)O2)C1)C(=O)c1ccccc1C3=O [Idarubicin] (top concentration tested 100.01 nM) | 0.0098 µM | 0.0153 µM | 39.7% | 38.7% | 
33 | Cc1[nH]c2ccccc2c1CCNCc1ccc(/C=C/C(=O)NO)cc1 [Panobinostat] (top concentration tested 99.878 nM) | 0.0164 µM | 0.0209 µM | 11.3% | 0.651% | 
34 | CN(Cc1cnc2nc(N)nc(N)c2n1)c1ccc(C(=O)N[C@@H](CCC(=O)O)C(=O)O)cc1 [Methotrexate] (top concentration tested 10000 nM) | 0.00798 µM | 0.057 µM | 37.4% | 31.9% | 
35 | O=C(C1CC1)N1CC[C@@H](Cn2c(-c3ccc(-c4ccc5occc5c4)cc3)nc3cnccc32)C1 (top concentration tested 9999.9 nM) |  |  | 75.1% | 91.7% | 96.6%
